Measured values from patent US20180177749A1, “USE OF CYP EXPRESSION TO DIRECT THERAPEUTIC INTERVENTION IN CANCER” (REGENTS OF THE UNIVERSITY OF MINNESOTA, priority 2016, published 2018).

How the values were obtained:
MDA-MB-231 xenograft = assay: RPPA of protein expression, MDA-MB-231 xenograft endpoint analysis; format: in vivo, nude mice; conditions: 4 mg/kg/day vs. PBS
Description: Frozen xenograft tissue samples were embedded in OCT, and 8 μm sections were obtained using a cryostat. […] The resulting whole tissue lysates were boiled for 8 min at 100° C. and then printed onto a nitrocellulose slide (Avid, Grace Biolabs) along with a BSA protein concentration curve to estimate total protein concentration in each lysate. Total protein levels were assessed in each sample by staining with Sypro Ruby Protein Blot Stain (Invitrogen) according to manufacturer's instructions.
The total protein concentration in each sample was estimated by printing onto a nitrocellulose slide along with a BSA standard concentration curve, and total protein levels were assessed by staining with Sypro Ruby Protein Blot Stain (Invitrogen) according to manufacturer's instructions. Tissue lysates were diluted to 250 μg/ml in extraction buffer and stored at −80° C. prior to printing of arrays. RPPA printing and analysis of xenograft samples was conducted as previously described (Wulfkuhle et al., Clin Cancer Res. 2012; 18:6426-35). Antibody staining intensities were quantified using the MicroVigene v5 Software Package (Vigenetech). Signaling pathway activation was evaluated by staining the arrays with 156 antibodies against signaling endpoints, mainly phosphorylated and cleaved protein products. Before use for RPPA analysis, antibody specificity was confirmed by Western blot and analysis as previously described (Wulfkuhle et al., Clin Cancer Res. 2012; 18:6426-35).

CYP3A4 (Δ3-22) = CYP3A4 (Δ3-22) (Homo sapiens, UniProt P08684); assay: Spectral binding to soluble truncated CYP3A4; conditions: soluble truncated CYP3A4Δ3-22; read-out: spectral dissociation constant (Ks)
Sequence of CYP3A4 (Δ3-22) (P08684 with tags, fused parts or gaps): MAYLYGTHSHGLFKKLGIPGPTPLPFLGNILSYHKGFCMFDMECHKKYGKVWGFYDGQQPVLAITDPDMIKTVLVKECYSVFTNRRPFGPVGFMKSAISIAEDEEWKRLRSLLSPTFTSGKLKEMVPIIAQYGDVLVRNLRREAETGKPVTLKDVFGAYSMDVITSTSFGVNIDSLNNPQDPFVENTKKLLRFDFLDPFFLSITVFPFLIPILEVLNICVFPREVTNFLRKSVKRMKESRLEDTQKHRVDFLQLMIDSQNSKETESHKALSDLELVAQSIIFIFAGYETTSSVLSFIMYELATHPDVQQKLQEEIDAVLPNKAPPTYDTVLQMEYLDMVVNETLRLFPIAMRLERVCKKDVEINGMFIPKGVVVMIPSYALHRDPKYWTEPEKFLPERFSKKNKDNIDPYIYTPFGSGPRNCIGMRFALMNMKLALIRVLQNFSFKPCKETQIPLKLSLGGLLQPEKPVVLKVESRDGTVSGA

[1] = *separate RPPA analysis, separate β actin probe

SMILES: CCCCCCNC(=N)NC(=N)NCc1ccccc1 [HBB, N1-hexyl-N5-benzyl-biguanide]
- fold change: IkappaB-alpha S32/36 (MDA-MB-231 xenograft): 1.317
- fold change: Insulin Receptor Beta (MDA-MB-231 xenograft): 1.219
- fold change: Jak2 Y1007 (MDA-MB-231 xenograft): 1.647
- fold change: KI67 (MDA-MB-231 xenograft): 1.120
- fold change: LC3B (MDA-MB-231 xenograft): 1.109
- fold change: LIMK1 T508/LIMK2 T505 (MDA-MB-231 xenograft): 1.351
- fold change: LKB1 S428 (MDA-MB-231 xenograft): 1.652
- fold change: MARCKS S152/156 (MDA-MB-231 xenograft): 1.421
- fold change: MCSFR Y723 (MDA-MB-231 xenograft): 1.215
- fold change: MDM2 S166 (MDA-MB-231 xenograft): 1.189
- fold change: MEK 1/2 S217/221 (MDA-MB-231 xenograft): 1.772
- fold change: Met Y1234/1235 (MDA-MB-231 xenograft): 1.556
- fold change: Musashi (MDA-MB-231 xenograft): 1.320
- fold change: NF-kappaB p65 S536 (MDA-MB-231 xenograft): 1.655
- fold change: PAK1 S199/204-PAK2 S192/197 (MDA-MB-231 xenograft): 1.852
- fold change: PAK1 T423/PAK2 T402 (MDA-MB-231 xenograft): 1.245
- fold change: PDGFR alpha Y754 (MDA-MB-231 xenograft): 1.266
- fold change: PDGFR beta (MDA-MB-231 xenograft): 1.147
- fold change: PDGFR beta Y716 (MDA-MB-231 xenograft): 0.981
- fold change: PDK1 S241 (MDA-MB-231 xenograft): 1.118
- fold change: PDL1 (MDA-MB-231 xenograft): 0.548
- fold change: PKC delta/theta S643/S676 (MDA-MB-231 xenograft): 1.447
- fold change: PKC zeta/lambda T410/403 (MDA-MB-231 xenograft): 0.971
- fold change: PLK1 T210 (MDA-MB-231 xenograft): 1.301
- fold change: PTEN (MDA-MB-231 xenograft): 1.334
- fold change: PTEN S380 (MDA-MB-231 xenograft): 1.440
- fold change: RAS TOTAL (MDA-MB-231 xenograft): 1.486
- fold change: Ras_GRF1 (MDA-MB-231 xenograft): 1.237
- fold change: Rb S780 (MDA-MB-231 xenograft): 1.516
- fold change: Ret Y905 (MDA-MB-231 xenograft): 1.885
- fold change: Ros Y2274 (MDA-MB-231 xenograft): 1.481
- fold change: S6 Ribosomal Protein S240/244 (MDA-MB-231 xenograft): 0.457
- fold change: SAPK/JNK T183/Y185 (MDA-MB-231 xenograft): 1.410
- fold change: SGK1 S78 (MDA-MB-231 xenograft): 1.510
- fold change: SMAD2 S245/250/255 (MDA-MB-231 xenograft): 1.425
- fold change: STAT3 S727 (MDA-MB-231 xenograft): 1.302
- fold change: Shc Y317 (MDA-MB-231 xenograft): 1.307
- fold change: Src Y527 (MDA-MB-231 xenograft): 1.356
- fold change: Src family Y416 (MDA-MB-231 xenograft): 0.804
- fold change: Stat 1 Y701 (MDA-MB-231 xenograft): 1.092
- fold change: Stat3 Y705 (MDA-MB-231 xenograft): 1.421
- fold change: Stat 5 Y694 (MDA-MB-231 xenograft): 0.929
- fold change: TGF-beta (MDA-MB-231 xenograft): 1.188
- fold change: TNF alpha (MDA-MB-231 xenograft): 1.119
- fold change: Tuberin/TSC2 Y1571 (MDA-MB-231 xenograft): 1.417
- fold change: VEGFR2 Y996 (MDA-MB-231 xenograft): 1.205
- fold change: Vimentin (MDA-MB-231 xenograft): 1.021
- fold change: XIAP (MDA-MB-231 xenograft): 1.311
- fold change: c-Abl T735 (MDA-MB-231 xenograft): 1.596
- fold change: c-Abl Y245 (MDA-MB-231 xenograft): 1.215
- fold change: c-ErbB2/HER2 (MDA-MB-231 xenograft): 1.184
- fold change: c-Kit Y703 (MDA-MB-231 xenograft): 1.408
- fold change: c-Met TOTAL (MDA-MB-231 xenograft): 1.220
- fold change: c-Myc (MDA-MB-231 xenograft): 1.078
- fold change: c-Raf S338 (MDA-MB-231 xenograft): 1.229
- fold change: eIF4G S1108 (MDA-MB-231 xenograft): 1.471
- fold change: mTOR (MDA-MB-231 xenograft): 0.679
- fold change: mTOR S2448 (MDA-MB-231 xenograft): 1.515
- fold change: p27 Kip1 (MDA-MB-231 xenograft): 1.253
- fold change: p27 T187 (MDA-MB-231 xenograft): 1.152
- fold change: p38 MAP Kinase T180/Y182 (MDA-MB-231 xenograft): 1.075
- fold change: p53 (MDA-MB-231 xenograft): 1.390
- fold change: p53 S15 (MDA-MB-231 xenograft): 1.586
- fold change: p70S6 Kinase (MDA-MB-231 xenograft): 1.193
- fold change: p70 S6 Kinase S371 (MDA-MB-231 xenograft): 1.621
- fold change: p70 S6 Kinase T389 (MDA-MB-231 xenograft): 2.148
- fold change: p70 S6 Kinase T412 (MDA-MB-231 xenograft): 1.352
- fold change: p90RSK T359/S363 (MDA-MB-231 xenograft): 1.248
- fold change: pYAP S127 (MDA-MB-231 xenograft): 1.022
- fold change: AMPK T172* (MDA-MB-231 xenograft; [1]): 3.561
- fold change: AMPK total* (MDA-MB-231 xenograft; [1]): 0.555
- fold change: PKM2 Y105* (MDA-MB-231 xenograft; [1]): 1.403
- fold change: PKM2 total* (MDA-MB-231 xenograft; [1]): 1.339
- Kd (CYP3A4 (Δ3-22)): 164 µM
